{
  "source": "paper PMC7217877",
  "about": "“N-AS-triggered SPMs are direct regulators of microglia in a model of Alzheimer’s disease” (Nature Communications, 2020)",
  "key": {"astrocyte": {"system": "astrocyte", "experiment": "immunofluorescence of ac-S565 and COX2 in primary cells", "format": "cell-based, C57BL/6 mice", "conditions": "Ab 10mM, replicates", "method": "(§1) To confirm the generation and roles of N-AS in neurons, cells from E18 C57BL/6 mice were prepared as previously described. Cortices were dissected and then dissociated followed by incubation in papain (Worthington) at 37 °C for 15 min. Neurons were plated on poly-L-lysine-coated coverslips with neuronal culture medium, serum-free Neurobasal medium (Gibco) containing 2% B27 supplements (Gibco), 1 mM Glutamax supplement (Gibco), and 100 U ml^−1 streptomycin/ 100 U ml^−1 penicillin (Gibco) at 37 °C in a humidified atmosphere of 5% CO2. Aβ 1–42 (10 μM, 24 h, Invitrogen, 03112) was exposed to neurons and the cells were analyzed for the generation and roles of N-AS. Primary astrocyte cultures were prepared from C57BL/6 mice as described previously. […] The human microglia treated with Aβ 1–42 and/or zileuton was incubated with N-AS (2.5 μM, 2 h, Sigma-Aldrich, 01912), and were analyzed for the generation and roles of N-AS.\n(§2) Thioflavin S (Sigma-Aldrich) staining was carried out according to previously described procedures. […] The sections were analyzed with a laser-scanning confocal microscope (FV3000; Olympus) or with a BX51 microscope (Olympus). MetaMorph software (Molecular Devices) was used to quantification. Three-dimensional reconstruction of microglia was recorded and analyzed using IMARIS software (Bitplane)[11]. […]"}, "microglia": {"system": "microglia", "experiment": "immunofluorescence of ac-S565 and COX2 in primary cells", "format": "cell-based, C57BL/6 mice", "conditions": "Ab 10mM, replicates", "method": "as §1, §2"}, "APP/PS1 mice": {"system": "APP/PS1 mice", "experiment": "ELISA of Aβ40 and Aβ42 in cortex (Fig 6e)", "format": "in vivo, mouse", "parameters": "Ab 40 (ELISA, Figure 6e) / Ab 42 (ELISA, Figure 6e): unit not given beside the values", "method": "For measurement of Aβ40 and Aβ42, we used commercially available ELISA kits (Invitrogen, KHB3481, and KHB3441). Cortex of mice was homogenized in buffer containing […] guanidine. ELISA was then performed for Aβ40 and Aβ42 according to the manufacturer’s instructions.\nTransgenic mouse lines over-expressing the hAPP695swe (APP) and presenilin-1M146V (PS1) mutations were originated from GlaxoSmithKline (Harlow, UK)[32] and maintained as described previously. We purchased 5×FAD mice from Jackson Labs (Stock number. 34840-JAX). Because APP/PS1 and 5xFAD mice show sex differences in disease progression, we used only male mice. To examine possible therapeutic effect of N-AS and aspirin in APP/PS1 mice, the N-AS (30 mg kg^−1, Sigma-Aldrich, 01912) was injected daily s.c. for 8 weeks to 7-months-old APP/PS1 mice until the age of 9 months, and aspirin (2 mg kg^−1, Sigma-Aldrich, A5376)[33] was administrated orally to 7-months-old APP/PS1 mice for 8 weeks. Also, to confirm possible therapeutic efficacy of N-AS in 5×FAD, the N-AS (30 mg kg^−1, Sigma-Aldrich, 01912) was injected daily s.c. for 4 weeks to 3-months-old 5×FAD mice until the age of 4 months. Block randomization method was used to allocate the animals to experimental groups. To eliminate the bias, we were blinded in experimental progress such as data collection and data analysis. Mice were housed at temperature of 22 °C and a 12 h day/12 h night cycle with free access to tap water and food pellets. All protocols were approved by the Kyungpook National University Institutional Animal Care and Use Committee."}, "[1]": {"conditions": "APP/PS1 + N-AS, individual animals"}},
  "note": "“And” between values parts separate entries of the source, which are not always exact repeats. Equal values may be shown once.",
  "data": [
    {"compound": "Ab: Aβ 1–42 (Invitrogen, 03112) used to induce an AD environment in cells", "values": [
      {"measurement": "ac-S565 with COX2, immunofluorescence quantification (Fig 3c)", "setting": "astrocyte", "value": "0.03307 and 0.0783 and 0.03875 and 0.05053 and 0.0718 and 0.07636"},
      {"measurement": "ac-S565 with COX2, immunofluorescence quantification (Fig 3c)", "setting": "microglia", "value": "0.1091 and 0.1473 and 0.02354 and 0.07315 and 0.06621 and 0.05168"}
    ]},
    {"compound": "CCCCCCCCCCCCC/C=C/[C@@H](O)[C@H](CO)NC(C)=O", "note": "[N-AS, N-((2S,3R,E)-1,3-Dihydroxyoctadec-4-en-2-yl)acetamide]", "values": [
      {"measurement": "Ab 40 (ELISA, Figure 6e)", "setting": "APP/PS1 mice; [1]", "value": "1042.75 and 892.25 and 1044 and 676.5 and 692.5 and 668.75 and 689.75 and 1124"},
      {"measurement": "Ab 42 (ELISA, Figure 6e)", "setting": "APP/PS1 mice; [1]", "value": "921.303 and 908.818 and 878.061 and 828.152 and 906.333 and 894.303 and 859.97 and 905.879"},
      {"measurement": "Aβ levels by ELISA of Aβ40 and Aβ42", "setting": "APP/PS1 mice; N-AS vs vehicle APP/PS1", "value": "significantly lower Aβ levels"}
    ]}
  ]
}
